# Values of other authors as cited in PMC11165342 (Asian Journal of Pharmaceutical Sciences, 2024).
smiles,measurement,value
"CC(C(=O)O)c1ccc(-c2ccccc2)c(F)c1 (stereo not shown) [FB, Flurbiprofen]",pKa,3.5–4.5
